Results from paper PMC9855884, “Glycosylated Lipopeptides—Synthesis and Evaluation of Antimicrobial Activity and Cytotoxicity” (Biomolecules, 2023).
Values after ≈ are worked out from the molar mass of the structure shown. Where a SMILES comes first, the peptide text is derived from it. The star is where a group is joined. βGlcNAc = CC(=O)N[C@@H]1[C@@H](O)[C@H](O)[C@@H](CO)O[C@H]1*; Stearoyl = CCCCCCCCCCCCCCCCCC(=O)*; Palmitoyl = CCCCCCCCCCCCCCCC(=O)*; Myristoyl = CCCCCCCCCCCCCC(=O)*

Columns and labels:
[1] = test system: E. faecium ATCC 700221; type: cell-based, Enterococcus faecium; details: ATCC 700221, 18 h
Experimental: (§1) The Acinetobacter baumannii ATCC BAA-1605, Enterococcus faecium ATCC 700221, Klebsiella aerogenes ATCC 13048, Klebsiella pneumoniae ATCC 700603, Pseudomonas aeruginosa ATCC 9027, Staphylococcus aureus ATCC 33591, Candida glabrata ATCC 15126, strains were acquired from the American Type Culture Collection (ATCC). All the strains were stored at −80 °C in Roti-Store cryo vials and were transferred into fresh Mueller–Hinton broth (MHB, Becton Dickinson, Warsaw, Poland) for bacteria or RPMI-1640 (Sigma-Aldrich, Steinheim, Germany) for fungi before the tests and incubated for 24 h at 37 °C. Then, the cultures were seeded on the Mueller–Hinton agar (BioMaxima, Lublin, Poland) or Sabouraud dextrose agar (SDA, BioMaxima, Lublin, Poland) plates, respectively, and incubated as just mentioned. These agar cultures were used for further microbiological assays. Cell densities for all assays were adjusted spectrophotometrically (Multiskan GO Microplate Spectrophotometer, Thermo Fisher Scientific, Vantaa, Finland) at 600 and 530 nm for bacteria and fungi, respectively.
(§2) The MICs were determined using a broth microdilution method according to the Clinical and Laboratory Standard Institute guidelines. For this purpose, initial inoculums of bacteria (5 × 10^5 CFU/mL) in MHB and yeasts (2 × 10^3 CFU/mL) in RPMI-1640 with 2% D-glucose were exposed to the ranging concentration of lipopeptides (1–512 μg/mL) and incubated at 37 °C for 18 h and 24 h, respectively. The experiments were conducted on 96-well microtiter polystyrene plates (Kartell, Italy). The growth was assessed visually after incubation and the MIC was assumed as the lowest peptide concentration at which a noticeable growth of microorganisms was inhibited. All experiments were conducted in triplicate.

[2] = test system: A. baumannii ATCC BAA 1605; type: cell-based, Acinetobacter baumannii; details: ATCC BAA 1605, 18 h
Experimental: as §1, §2

[3] = test system: K. aerogenes ATCC 13048; type: cell-based, Klebsiella aerogenes; details: ATCC 13048, 18 h
Experimental: as §1, §2

[4] = test system: C. glabrata ATCC 15126; type: cell-based, Candida glabrata; details: ATCC 15126, 24 h
Experimental: as §1, §2

[5] = MTT assay, cytotoxicity; type: cell-based, human; details: human, HaCaT keratinocytes, 24 h incubation at 37 °C, 0.5–500 μg/mL, six replicates per concentration, repeated at least twice
Experimental: To evaluate the cytotoxicity of the test peptides (IC50), the classic MTT assay on 96-well plates was performed for human keratinocytes (HaCaT) which were acquired from the ATCC. The assay was based on colorimetric determination of the cell metabolic activity where the color intensity reflected the number of live cells that could be measured spectrophotometrically. The cell line was cultured in a Dulbecco’s modified Eagle Medium (Invitrogen) supplemented with 10% fetal bovine serum (v/v), 100 units/mL of penicillin, 100 μg/mL of streptomycin, and 2 mM L-glutamine and was kept at 37 °C in a humidified 5% CO2 incubator. Briefly, a day after plating of 500 cells per well, a series of concentrations (0.5–500 μg/mL) of the test compounds were applied. DMSO was added to the control cells at a final concentration of 1.0% (v/v), which was related to the maximum concentration of the solvent compounds used in the experiment. After 24 h of incubation at 37 °C (humidified 5% CO2 incubator) with the peptides, a medium containing 1 mg/mL of MTT was added to the wells up to a final concentration of 0.5 mg/mL. Subsequently, the plates were incubated at 37 °C for 4 h. Then, the medium was aspirated, and the formazan product was solubilized with DMSO. The background absorbance at 630 nm was subtracted from that at 570 nm for each well (Epoch, BioTek Instruments, Winooski, VT, USA). Six replicates were conducted for each concentration. All experiments were repeated at least twice and the resulting IC50 values were calculated with a GraFit 7 software (v. 7.0, Erithacus, Berkley, CA, USA).
The selectivity indexes were calculated for all the strains as IC50/MIC. According to IC50, in most cases, glycosylation caused only a slight decrease in toxicity. However, in contrast with SI calculated for HC50, the differences between USCLs and gUSCLs are not so distinct. […] Moreover, toxicity of USCLs and gUSCLs is high and exceeds their antimicrobial activity. The lipopetides were not selective against Gram-negative strains (K. pneumoniae, A. baumannii, P. aeruginosa, K. aerogenes) over human cells. A few USCLs were selective (SI > 1) against E. faecium and S. aureus with SI up to 1.87; and some gUSCLs were selective against E. faecium but not against S. aureus, with SI between 0.63 and 1.73. […] In this case, SI of gUSCLs was noticeably […] than that of corresponding parent USCLs (2.07, 1.99, 2.67 vs. 2.53, 2.36, 3.46, respectively). Selectivity indexes were plotted against adjusted retention time (Figures S15–S21). A moderate linear correlation was found in USCLs and K. pneumoniae, C. glabrata, and gUSCLs and K. pneumoniae, K. aerogenes (R^2 between 0.6064 and 0.6481). A relatively high linear correlation was obtained for USCLs and K. aerogenes (R^2 of 0.8214) and also for gUSCLs and C. glabrata (R^2 of 0.9223).

SMILES | MIC [1] [µg/mL] | MIC [2] [µg/mL] | MIC [3] [µg/mL] | MIC [4] [µg/mL] | IC50 at 24 h [5] [µg/mL]
CCCCCCCCCCCCCC(=O)N[C@@H](CCCNC(=N)N)C(=O)N[C@@H](CO)C(=O)N[C@@H](CCCNC(=N)N)C(N)=O [Peptide 2, C14-RSR-NH2] (Myristoyl-Arg-Ser-Arg-NH2) | 8 (≈ 12.8 µM) | 64 (≈ 102 µM) | 512 (≈ 817 µM) | 32 (≈ 51 µM) | 15 ± 2.05 (≈ 23.9 µM)
CCCCCCCCCCCCCC(=O)N[C@@H](CCCNC(=N)N)C(=O)N[C@@H](CCCNC(=N)N)C(=O)N[C@@H](CO)C(N)=O [Peptide 3, C14-RRS-NH2] (Myristoyl-Arg-Arg-Ser-NH2) | 8 (≈ 12.8 µM) | 64 (≈ 102 µM) | 512 (≈ 817 µM) | 32 (≈ 51 µM) | 14.3 ± 1.96 (≈ 22.8 µM)
CCCCCCCCCCCCCCCC(=O)N[C@@H](CO)C(=O)N[C@@H](CCCNC(=N)N)C(=O)N[C@@H](CCCNC(=N)N)C(N)=O [Peptide 4, C16-SRR-NH2] (Palmitoyl-Ser-Arg-Arg-NH2) | 8 (≈ 12.2 µM) | 32 (≈ 48.9 µM) | 16 (≈ 24.4 µM) | 4 (≈ 6.11 µM) | 4.02 ± 1.17 (≈ 6.14 µM)
CCCCCCCCCCCCCCCC(=O)N[C@@H](CCCNC(=N)N)C(=O)N[C@@H](CO)C(=O)N[C@@H](CCCNC(=N)N)C(N)=O [Peptide 5, C16-RSR-NH2] (Palmitoyl-Arg-Ser-Arg-NH2) | 8 (≈ 12.2 µM) | 32 (≈ 48.9 µM) | 32 (≈ 48.9 µM) | 8 (≈ 12.2 µM) | 5.72 ± 2.27 (≈ 8.73 µM)
CCCCCCCCCCCCCCCC(=O)N[C@@H](CCCNC(=N)N)C(=O)N[C@@H](CCCNC(=N)N)C(=O)N[C@@H](CO)C(N)=O [Peptide 6, C16-RRS-NH2] (Palmitoyl-Arg-Arg-Ser-NH2) | 8 (≈ 12.2 µM) | 32 (≈ 48.9 µM) | 64 (≈ 97.7 µM) | 8 (≈ 12.2 µM) | 7.84 ± 1.44 (≈ 12 µM)
CCCCCCCCCCCCCCCCCC(=O)N[C@@H](CO)C(=O)N[C@@H](CCCNC(=N)N)C(=O)N[C@@H](CCCNC(=N)N)C(N)=O [Peptide 7, C18-SRR-NH2] (Stearoyl-Ser-Arg-Arg-NH2) | 8 (≈ 11.7 µM) | 32 (≈ 46.9 µM) | 16 (≈ 23.4 µM) | 4 (≈ 5.86 µM) | 8.28 ± 1.18 (≈ 12.1 µM)
CCCCCCCCCCCCCCCCCC(=O)N[C@@H](CCCNC(=N)N)C(=O)N[C@@H](CO)C(=O)N[C@@H](CCCNC(=N)N)C(N)=O [Peptide 8, C18-RSR-NH2] (Stearoyl-Arg-Ser-Arg-NH2) | 8 (≈ 11.7 µM) | 64 (≈ 93.7 µM) | 32 (≈ 46.9 µM) | 4 (≈ 5.86 µM) | 7.97 ± 1.51 (≈ 11.7 µM)
CCCCCCCCCCCCCCCCCC(=O)N[C@@H](CCCNC(=N)N)C(=O)N[C@@H](CCCNC(=N)N)C(=O)N[C@@H](CO)C(N)=O [Peptide 9, C18-RRS-NH2] (Stearoyl-Arg-Arg-Ser-NH2) | 8 (≈ 11.7 µM) | 32 (≈ 46.9 µM) | 32 (≈ 46.9 µM) | 4 (≈ 5.86 µM) | 10.7 ± 1.61 (≈ 15.6 µM)
CCCCCCCCCCCCCC(=O)N[C@@H](CO[C@@H]1O[C@H](CO)[C@@H](O)[C@H](O)[C@H]1NC(C)=O)C(=O)N[C@@H](CCCNC(=N)N)C(=O)N[C@@H](CCCNC(=N)N)C(N)=O [Peptide 10, C14-S(GlcNAc)RR-NH2] (Myristoyl-Ser(βGlcNAc)-Arg-Arg-NH2) | 32 (≈ 38.6 µM) | 128 (≈ 154 µM) | >512 | 256 (≈ 308 µM) | 32.1 ± 6.26 (≈ 38.7 µM)
CCCCCCCCCCCCCC(=O)N[C@@H](CCCNC(=N)N)C(=O)N[C@@H](CO[C@@H]1O[C@H](CO)[C@@H](O)[C@H](O)[C@H]1NC(C)=O)C(=O)N[C@@H](CCCNC(=N)N)C(N)=O [Peptide 11, C14-RS(GlcNAc)R-NH2] (Myristoyl-Arg-Ser(βGlcNAc)-Arg-NH2) | 32 (≈ 38.6 µM) | 64 (≈ 77.1 µM) | >512 | 128 (≈ 154 µM) | 25.2 ± 3.47 (≈ 30.3 µM)
CCCCCCCCCCCCCC(=O)N[C@@H](CCCNC(=N)N)C(=O)N[C@@H](CCCNC(=N)N)C(=O)N[C@@H](CO[C@@H]1O[C@H](CO)[C@@H](O)[C@H](O)[C@H]1NC(C)=O)C(N)=O [Peptide 12, C14-RRS(GlcNAc)-NH2] (Myristoyl-Arg-Arg-Ser(βGlcNAc)-NH2) | 16 (≈ 19.3 µM) | 64 (≈ 77.1 µM) | >512 | 128 (≈ 154 µM) | 20.5 ± 3.05 (≈ 24.6 µM)
CCCCCCCCCCCCCCCC(=O)N[C@@H](CO[C@@H]1O[C@H](CO)[C@@H](O)[C@H](O)[C@H]1NC(C)=O)C(=O)N[C@@H](CCCNC(=N)N)C(=O)N[C@@H](CCCNC(=N)N)C(N)=O [Peptide 13, C16-S(GlcNAc)RR-NH2] (Palmitoyl-Ser(βGlcNAc)-Arg-Arg-NH2) | 16 (≈ 18.6 µM) | 32 (≈ 37.3 µM) | 512 (≈ 597 µM) | 32 (≈ 37.3 µM) | 10.6 ± 2.04 (≈ 12.4 µM)
CCCCCCCCCCCCCCCC(=O)N[C@@H](CCCNC(=N)N)C(=O)N[C@@H](CO[C@@H]1O[C@H](CO)[C@@H](O)[C@H](O)[C@H]1NC(C)=O)C(=O)N[C@@H](CCCNC(=N)N)C(N)=O [Peptide 14, C16-RS(GlcNAc)R-NH2] (Palmitoyl-Arg-Ser(βGlcNAc)-Arg-NH2) | 16 (≈ 18.6 µM) | 32 (≈ 37.3 µM) | 64 (≈ 74.6 µM) | 16 (≈ 18.6 µM) | 14.1 ± 3.48 (≈ 16.4 µM)
CCCCCCCCCCCCCCCC(=O)N[C@@H](CCCNC(=N)N)C(=O)N[C@@H](CCCNC(=N)N)C(=O)N[C@@H](CO[C@@H]1O[C@H](CO)[C@@H](O)[C@H](O)[C@H]1NC(C)=O)C(N)=O [Peptide 15, C16-RRS(GlcNAc)-NH2] (Palmitoyl-Arg-Arg-Ser(βGlcNAc)-NH2) | 8 (≈ 9.32 µM) | 32 (≈ 37.3 µM) | 256 (≈ 298 µM) | 16 (≈ 18.6 µM) | 5.16 ± 1.32 (≈ 6.01 µM)
CCCCCCCCCCCCCCCCCC(=O)N[C@@H](CO[C@@H]1O[C@H](CO)[C@@H](O)[C@H](O)[C@H]1NC(C)=O)C(=O)N[C@@H](CCCNC(=N)N)C(=O)N[C@@H](CCCNC(=N)N)C(N)=O [Peptide 16, C18-S(GlcNAc)RR-NH2] (Stearoyl-Ser(βGlcNAc)-Arg-Arg-NH2) | 16 (≈ 18.1 µM) | 16 (≈ 18.1 µM) | 32 (≈ 36.1 µM) | 4 (≈ 4.51 µM) | 10.1 ± 0.66 (≈ 11.4 µM)
CCCCCCCCCCCCCCCCCC(=O)N[C@@H](CCCNC(=N)N)C(=O)N[C@@H](CO[C@@H]1O[C@H](CO)[C@@H](O)[C@H](O)[C@H]1NC(C)=O)C(=O)N[C@@H](CCCNC(=N)N)C(N)=O [Peptide 17, C18-RS(GlcNAc)R-NH2] (Stearoyl-Arg-Ser(βGlcNAc)-Arg-NH2) | 8 (≈ 9.03 µM) | 16 (≈ 18.1 µM) | 32 (≈ 36.1 µM) | 4 (≈ 4.51 µM) | 9.45 ± 0.89 (≈ 10.7 µM)
